How the values were obtained:
carrageenin oedema = test: Antiinflammatory activity: carrageenin oedema in the rat; format: in vivo; conditions: po, 4 h, read-out: OEDEMA INHIBITION % at the fourth hour
Procedure: (§1) The activity tests were carried out on male Spra gue-Dawley rats weighing 200+20 g and on male Swiss mice weighing 26+3 g.
(§2) The test compounds were administered orally by means of gastroesophageal tube, in the form of a suspen sion in a 10 ml/kg mucilage of 5% gum arabic; and intraperitoneally in the form of an aqueous suspen sion added with a few drops of Tween 80, in the con stant volume of 10 ml/kg.
The compounds under test and the control ones were administered orally one hour before the injection of 0.1 ml of 1% carrageenin in the right paw of the animals.
The volume of the paw was measured by means of a plethysmograph immediately before the injection and 2, 4 and 6 hours after.
The results were expressed as percentage inhibi tion of the oedema in the treated animals in comparison with the control animals, at the time of the maximum oedema development (fourth hour after the carrageenin injection).

gastric ulceration = format: in vivo, rat; conditions: os
Procedure: To rats fasted for 18 hours, with water ad libitum, were administered the compounds under test at "0" time and after 2 hours. Control rats were treated with established anti-inflammatory agents.
6 Hours after the beginning of the test, the animals were killed by ether inhalation.
Gastric ulceration was assessed on the ground of values ranging from 0 to 4: • 0 = no ulceration; • 1 = slight iperhaemia and/or a few ulcers; • 2 = severe iperhaemia and many punctiform ulcers; • 3 = severe submucosal hemorrage, one large ulcer and many punctiform ulcers; • 4 severe submucosal hemorrage and many large ulcers.
The ulcerogenic index was measured by the following formula (Lwoff. J.M., J. Pharmacol., 2, 81, 1971): [formula]

acetic acid peritonitis = test: Anti-exudative activity: acetic acid peritonitis in the rat; format: in vivo; conditions: for EXUDATE VOLUME ml ± E.S.: controls 2.58 ± 0.18
Procedure: The test was carried out according to the procedure described by Arrigoni-Martelli (Boll.Chim. Far. 107, 29, 1968). This method is based upon the evaluation of the anti-exudative effect of a drug at the peritoneal level, following a intraperitoneal injection of 10 ml/kg of a 0.5% acetic acid solution.
The compounds under test were administered oral ly one hour before the inflammatory agent; 30 minutes after the treatment the animals were killed and the fluid from the peritoneal cavity was drawn and measured.
The test compounds were administered by oral route 1 hour before intraperitoneal injection of acetic acid (10 ml/kg of a 0.5% solution).
The anti-exudative activity was determined on the basis of the peritoneal exudate of the treated animals, in comparison with the controls.

[1] = test system: phenylbenzoquinone writhing test; test: Phenylbenzoquinone writhing test in the mouse (ED50 and duration of effect); format: in vivo; conditions: for % INHI-BITION / N° OF WRITHES IN 10' ml ± E.S.: Table 6, oral, one hour before the test; for N° OF WRITHES IN 10' ml ± E.S.: controls 52.4 ± 1.69; for % INHIBITION / Nº OF WRITHES IN 10' ml ± E.S.: Table 7, oral 1 mg/kg; for Nº OF WRITHES IN 10' ml ± E.S.: controls 53.2 ± 1.26
Procedure: The analgesic effect was determined by the number of writhes of the abdomen recorded during 10 minutes (from 5 to 15 minutes after the phenylbenzo quinone injection).

Carrageenin pleuritis = Carrageenin pleuritis in the rat; format: in vivo; conditions: for EXUDATE VOLUME: 30 min. before carrageenin and 6 hours after, exudate at 18 hours, controls 2.76 ± 0.38
Procedure: Compound HA-34 was tested for the protective activity against the exudative pleuritis reaction induced by carrageenin. HA-34 was administered 30 min. before the injection of carrageenin, and 6 hours after it. The experiment was carried out on male Spra- gue-Dawley rats, anestethized with ethyl urethane, which were subjected, in their right pleural cavity, to injection of 1.5 ml of air and then 0.1 ml of a 1% carrageenin solution, in sterile normal saline, according to the procedure by Van Armann et al. (J. Pharmac. Exp. Ther., 150, 328, 1965). Indometha cin and Piroxicam were employed as the control drugs, under the same conditions. 18 Hours after the intrapleuric carrageenin injec tion, the animals were killed by means of ether inhalation, and the pleuric exudate was collected and measured.

[2] = test system: Writhing test induced by phenyl-benzoquinone; test: Phenylbenzoquinone writhing test in the rat; format: in vivo; conditions: Rattus norvegicus, po, 10 min, read-out: % INHIBI-TION
Procedure: as §1, §2

[3] = 30 min. before phenylbenzoquinone

With `COc1ccc2c(c1)c(CC(=O)O)c(C)n2C(=O)c1ccc(Cl)cc1` [INDO, Indomethacin] the inhibition in vivo at 10 mg/kg (carrageenin oedema) was 57.3 ± 0.85%, the “ULCERA-TION INDEX” value (gastric ulceration) was 250 and the “% ANIMALS WITH ULCERS” value (gastric ulceration; 20 mg/kg) was 100%. For the same compound, the “ULCERA-TION DEGREE” value (gastric ulceration; 20 mg/kg, scale 0 to 4) was 2.5, the inhibition in vivo at 1 mg/kg (acetic acid peritonitis; Rattus norvegicus, po, Table 4, os, 1 mg/kg) was 74% and the inhibition in vivo at 10 mg/kg (acetic acid peritonitis; Rattus norvegicus, po, Table 4, os, 10 mg/kg) was 93%. For the same compound, the inhibition in vivo at 0.1 mg/kg (acetic acid peritonitis; Rattus norvegicus, po, Table 8, oral, 0.1 mg/kg) was 37.2%, the inhibition in vivo at 0.5 mg/kg (acetic acid peritonitis; Rattus norvegicus, po, Table 8, oral, 0.5 mg/kg) was 53% and the inhibition in vivo at 1 mg/kg (acetic acid peritonitis; Rattus norvegicus, po, Table 8, oral, 1 mg/kg) was 72.8%. The inhibition in vivo at 10 mg/kg (acetic acid peritonitis; Rattus norvegicus, po, Table 8, oral, 10 mg/kg) was 94.8%, the ED50 (acetic acid peritonitis; Rattus norvegicus, oral administration 1 hour before i.p. acetic acid) was 0.3 mg/kg and the “EXUDATE VOLUME ml ± E.S.” value (acetic acid peritonitis; Table 8, oral, 0.1 mg/kg, 1 hour before acetic acid) was 1.62 ± 0.09 mL. The “EXUDATE VOLUME ml ± E.S.” value (acetic acid peritonitis; Table 8, oral, 0.5 mg/kg) was 1.21 ± 0.07 mL, the “EXUDATE VOLUME ml ± E.S.” value (acetic acid peritonitis; Table 8, oral, 1 mg/kg) was 0.70 ± 0.09 mL and the “EXUDATE VOLUME ml ± E.S.” value (acetic acid peritonitis; Table 8, oral, 10 mg/kg) was 0.13 ± 0.04 mL. For the same compound, the ED50 ([1]; Mus musculus, po, 1 h) was 0.5 mg/kg, the “% INHI-BITION” value ([1]; 0.1 mg/kg) was 22.9% and the “N° OF WRITHES IN 10' ml ± E.S.” value ([1]; 0.1 mg/kg) was 40.4 ± 2.46. The “% INHI-BITION” value ([1]; 0.5 mg/kg) was 48.1%, the “N° OF WRITHES IN 10' ml ± E.S.” value ([1]; 0.5 mg/kg) was 27.2 ± 1.48 and the “% INHI-BITION” value ([1]; 1 mg/kg) was 87.0%. For the same compound, the “N° OF WRITHES IN 10' ml ± E.S.” value ([1]; 1 mg/kg) was 6.8 ± 0.76, the “% INHI-BITION” value ([1]; 5 mg/kg) was 91.4% and the “N° OF WRITHES IN 10' ml ± E.S.” value ([1]; 5 mg/kg) was 4.5 ± 0.65. The “% INHIBITION” value [1, 3] was 85.5%, the “Nº OF WRITHES IN 10' ml ± E.S.” value [1, 3] was 7.7 ± 1.18 and the “% INHIBITION” value ([1]; 1 h before phenylbenzoquinone) was 87.8%. For the same compound, the “Nº OF WRITHES IN 10' ml ± E.S.” value ([1]; 1 h before phenylbenzoquinone) was 6.5 ± 0.86, the “% INHIBITION” value ([1]; 3 h before phenylbenzoquinone) was 88.3% and the “Nº OF WRITHES IN 10' ml ± E.S.” value ([1]; 3 h before phenylbenzoquinone) was 6.2 ± 0.70. The “% INHIBITION” value ([1]; 4 h before phenylbenzoquinone) was 87.2%, the “Nº OF WRITHES IN 10' ml ± E.S.” value ([1]; 4 h before phenylbenzoquinone) was 6.8 ± 0.64 and the “% INHIBITION” value ([1]; 6 h before phenylbenzoquinone) was 80.4%. For the same compound, the “Nº OF WRITHES IN 10' ml ± E.S.” value ([1]; 6 h before phenylbenzoquinone) was 10.4 ± 0.56, the “% INHIBITION” value ([1]; 8 h before phenylbenzoquinone) was 60.3% and the “Nº OF WRITHES IN 10' ml ± E.S.” value ([1]; 8 h before phenylbenzoquinone) was 21.2 ± 1.26. The “% INHIBITION” value ([1]; 24 h before phenylbenzoquinone) was 53.4%, the “Nº OF WRITHES IN 10' ml ± E.S.” value ([1]; 24 h before phenylbenzoquinone) was 24.8 ± 1.15 and the “% INHIBITION” value ([1]; 32 h before phenylbenzoquinone) was 25.9%. For the same compound, the “Nº OF WRITHES IN 10' ml ± E.S.” value ([1]; 32 h before phenylbenzoquinone) was 39.4 ± 1.36, the “% INHIBITION” value (Carrageenin pleuritis; 5 mg/kg) was 51.8% and the “EXUDATE VOLUME” value (Carrageenin pleuritis; 5 mg/kg) was 1.33 ± 0.34. For the same compound, the “% INHIBITION” value (Carrageenin pleuritis; 10 mg/kg) was 72.4%, the “EXUDATE VOLUME” value (Carrageenin pleuritis; 10 mg/kg) was 0.76 ± 0.20 and the inhibition in vivo at 0.5 mg/kg [2] was 49%. For the same compound, the inhibition in vivo at 5 mg/kg [2] was 87%.

Reference: EP0133934A2, “Pharmacologically active 1,3,4-thiadiazol-(3,2-a)-thieno-(2,3-d)-pyrimidin-5-(H)one derivatives” (NIKEPHARMA S.r.l., priority 1983, dated 1985)
